Drawing on patent US9174980B2, “Heterocyclic compounds as inhibitors of leukotriene production” (Boehringer Ingelheim International GmbH, priority 2012, dated 2015), this text covers IC50 for 30 compounds.

In assay [1] the test system is synthesis of LTB4 in human whole blood. Kind of assay: Human whole blood assay (calcimycin-stimulated LTB4 synthesis). In kind it is cell-based. The note with it: Homo sapiens; read-out: Human Whole Blood LTB4 Assay for FLAP (IC50 nM). In short, it runs like this:
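Readout: plasma LTB4 by antibody-based HTRF. Compound added to heparinized human whole blood, 15 min 37° C; calcimycin 20 μM final (PBS pH 7.4), 30 min 37° C; spun 1500×g 5 min, plasma taken.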

Assay [2] addresses T1, recombinant human FLAP protein (Homo sapiens, UniProt P20292).
T1 construct: made in house; host or cells: Sf9 insect cells (membrane fraction, 100,000 x g pellet)
T1 sequence (P20292 1-161): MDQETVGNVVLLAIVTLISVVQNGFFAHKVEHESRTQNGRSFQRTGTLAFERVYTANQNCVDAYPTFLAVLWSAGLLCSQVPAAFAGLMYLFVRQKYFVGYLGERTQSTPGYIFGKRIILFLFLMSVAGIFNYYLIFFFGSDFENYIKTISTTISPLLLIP
As to the kind of experiment: FLAP binding assay (Scintillation Proximity Assay, displacement of [125I]L-691,831). The note with it: read-out: Human FLAP SPA Binding (IC50 nM). In short, it runs like this:
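Membranes from sf9 cells expressing recombinant human FLAP (5 μg/well) on WGA SPA beads were incubated with compound and 0.08 nM [125I]L-691,831 in Tris pH 7.5 binding buffer, shaken 2 h. Displacement read by scintillation proximity; non-specific binding set with 10 μM unlabelled L-691,831.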
On the technique in general: Scintillation proximity formats need no separation of bound from free tracer.

For orientation: IC50 means the concentration that inhibits the measured activity by half. As for `Cn1c(C2(c3ccc(-c4cnc(N)nc4)cc3)CCC2)nc2ccccc21` [Example 136, 5-{4-[1-(1-methyl-1H-benzimidazol-2-yl)cyclobutyl]phenyl}pyrimidin-2-amine], the IC50 in assay [1] is over 5000 nM; in assay [2], 190 nM.
Turning to `CC(C)C(C)(c1ccc(OCc2ccccn2)cc1)c1cn(C)c2cc(C(=O)O)ccc12` (stereo not drawn) [Example 36, 23-[1,2-dimethyl-1-[4-(2-pyridylmethoxy)phenyl]propyl]-1-methyl-indole-6-carboxylic acid], the IC50 in assay [1] amounted to 1900 nM; in assay [2], 1.8 nM.
Consider `CN(C)C(=O)Cn1cc(-c2cc([C@](C)(c3ccc(-c4cnc(N)nc4)cc3)C3CC3)no2)cn1` [Example 198, 2-[4-(3-{(1S)-1-[4-(2-aminopyrimidin-5-yl)phenyl]-1-cyclopropylethyl}-1,2-oxazol-5-yl)-1H-pyrazol-1-yl]-N,N-dimethylacetamide], for which the IC50 came to 1600 nM in assay [1] and 350 nM in assay [2].
For `Nc1ncc(-c2ccc(C3(c4nc5cnccc5[nH]4)CCC3)cc2)cn1` [Example 126, 5-{4-[1-(1H-imidazo[4,5-c]pyridin-2-yl)cyclobutyl]phenyl}pyrimidin-2-amine] the same measures were 1800 nM and 71 nM.
For `Nc1ncc(-c2ccc(C3(c4c[nH]c5cccnc45)CCC3)cc2)cn1` [Example 108, 5-{4-[1-(1H-pyrrolo[3,2-b]pyridin-3-yl)cyclobutyl]phenyl}pyrimidin-2-amine] the same measures were 360 nM and 3 nM.
With `COC(=O)Cn1cc(C2(c3ccc(-c4cnc(N)nc4)cc3)CCC2)c2ccccc21` [Example 123, methyl (3-{1-[4-(2-aminopyrimidin-5-yl)phenyl]cyclobutyl}-1H-indol-1-yl)-acetate], the IC50 was over 5000 nM in assay [1] and 7.9 nM in assay [2].
In the case of `CN(C)CCn1cc(-c2cc(C(C)(c3ccc(-c4cnc(N)nc4)cc3)C3CC3)no2)cn1` (stereo not drawn) [Example 187, 5-{4-[1-cyclopropyl-1-(5-{1-[2-(dimethylamino)ethyl]-1H-pyrazol-4-yl}-1,2-oxazol-3-yl)ethyl]phenyl}pyrimidin-2-amine], the concentration for half-maximal inhibition (IC50) in assay [1] amounted to 67 nM; in assay [2], 9.9 nM.
For `Nc1ncc(-c2ccc(C3(c4c[nH]c5ccncc45)CCC3)cc2)cn1` [Example 110, 5-{4-[1-(1H-pyrrolo[3,2-c]pyridin-3-yl)cyclobutyl]phenyl}pyrimidin-2-amine] the same measures were 1500 nM and 87 nM.
In the case of `CC(C)C(C)(c1ccc(-c2cnc(N)nc2)cc1)c1n[nH]c(-c2ccccc2)n1` (stereo not drawn) [Example 96, 5-{4-[3-methyl-2-(5-phenyl-1H-1,2,4-triazol-3-yl)butan-2-yl]phenyl}pyrimidin-2-amine], the IC50 in assay [1] stood at 240 nM; in assay [2], 1.4 nM.
As to `Nc1ncc(-c2ccc(C3(c4cn(CC(=O)N5CCOCC5)c5ccccc45)CCC3)cc2)cn1` [Example 148, 2-(3-{1-[4-(2-aminopyrimidin-5-yl)phenyl]cyclobutyl}-1H-indol-1-yl)-1-(morpholin-4-yl)ethanone], the IC50 is 3100 nM in assay [1] and 9 nM in assay [2].
For the compound `Nc1ncc(-c2ccc(C3(c4n[nH]c(-c5cccnc5)n4)CCOCC3)cc2)cn1` [Example 74, 5-(4-{4-[5-(pyridin-3-yl)-1H-1,2,4-triazol-3-yl]tetrahydro-2H-pyran-4-yl}phenyl)pyrimidin-2-amine], the values for the IC50 in assay [1] and in assay [2] were 3500 nM and 780 nM, respectively.
Taken in the same sequence, the figures for `COC(=O)c1[nH]c2ccccc2c1C1(c2ccc(-c3cnc(N)nc3)cc2)CCC1` [Example 165, methyl 3-{1-[4-(2-aminopyrimidin-5-yl)phenyl]cyclobutyl}-1H-indole-2-carboxylate] were 160 nM and 6.1 nM.
Taken in the same sequence, the figures for `COCCN(C)C(=O)c1cccc2c(C3(c4ccc(-c5cnc(N)nc5)cc4)CCC3)c[nH]c12` [Example 116, 3-{1-[4-(2-aminopyrimidin-5-yl)phenyl]cyclobutyl}-N-(2-methoxyethyl)-N-methyl-1H-indole-7-carboxamide] were 270 nM and 2.5 nM.
Taken in the same sequence, the figures for `COC(=O)c1cc(-c2cnn(C)c2)c(C2(c3ccc(-c4cnc(N)nc4)cc3)CCC2)n1C` [Example 182, methyl 5-{1-[4-(2-aminopyrimidin-5-yl)phenyl]cyclobutyl}-1-methyl-4-(1-methyl-1H-pyrazol-4-yl)-1H-pyrrole-2-carboxylate] were 1400 nM and 38 nM.
Turning to `Nc1ncc(-c2ccc(C3(c4c[nH]c5c(C(=O)NC6CCS(=O)(=O)C6)cccc45)CCC3)cc2)cn1` (stereo not drawn) [Example 5, 3-{1-[4-(2-aminopyrimidin-5-yl)phenyl]cyclobutyl}-N-(1,1-dioxidotetrahydrothiophen-3-yl)-1H-indole-7-carboxamide], the values for the IC50 in assay [1] and in assay [2] were 220 nM and 0.72 nM, respectively.
For `COC(c1ccc(-c2cnc(N)nc2)cc1)(c1nn(C)c2ccccc12)C(C)(C)C` (stereo not drawn) [Example 53, 5-[4-[1-methoxy-2,2-dimethyl-1-(1-methylindazol-3-yl)propyl]phenyl]pyrimidin-2-amine] the same measures were over 5000 nM and 400 nM.
For `Nc1ncc(-c2ccc(C3(c4c[nH]c5c(C(=O)N6CC[C@H](O)C6)cccc45)CCC3)cc2)cn1` [Example 135, (3-{1-[4-(2-aminopyrimidin-5-yl)phenyl]cyclobutyl}-1H-indol-7-yl)[(3S)-3-hydroxypyrrolidin-1-yl]methanone] the same measures were 500 nM and 2.3 nM.
Taken in the same sequence, the figures for `CN1CCN(C(=O)c2cccc3c(C4(c5ccc(-c6cnc(N)nc6)cc5)CCC4)c[nH]c23)CC1` [Example 146] were 310 nM and 1.7 nM.
Take `Nc1ncc(-c2ccc(C3(c4cn(CC(=O)O)c5ccccc45)CCC3)cc2)cn1` [Example 124, (3-{1-[4-(2-aminopyrimidin-5-yl)phenyl]cyclobutyl}-1H-indol-1-yl)acetic acid]: the values for the IC50 in assay [1] and in assay [2] were over 5000 nM and 5.5 nM, respectively.
As for `Cn1nc(C(c2ccc(-c3cnc(N)nc3)cc2)C(C)(C)C)c2ccccc21` (stereo not drawn) [Example 44, 5-[4-[2,2-dimethyl-1-(1-methylindazol-3-yl)propyl]phenyl]pyrimidin-2-amine], the IC50 is over 5000 nM in assay [1] and 21 nM in assay [2].
On to `CN(CCO)C(=O)c1ccc2[nH]cc(C3(c4ccc(-c5cnc(N)nc5)cc4)CCC3)c2c1` [Example 105, 3-{1-[4-(2-aminopyrimidin-5-yl)phenyl]cyclobutyl}-N-(2-hydroxyethyl)-N-methyl-1H-indole-5-carboxamide], for which the IC50 is over 5000 nM in assay [1] and 91 nM in assay [2].
Taken in the same sequence, the figures for `Cc1nnc(CN(C)C(=O)c2cccc3c(C4(c5ccc(-c6cnc(N)nc6)cc5)CCC4)c[nH]c23)o1` [Example 11, 3-{1-[4-(2-aminopyrimidin-5-yl)phenyl]cyclobutyl}-N-methyl-N-[(5-methyl-1,3,4-oxadiazol-2-yl)methyl]-1H-indole-7-carboxamide] were 230 nM and 3.3 nM.
Taken in the same sequence, the figures for `COCCNC(=O)c1[nH]c2ccccc2c1C1(c2ccc(-c3cnc(N)nc3)cc2)CCC1` [Example 193] were 450 nM and 7.9 nM.
For `COC(=O)c1cc(-c2ccc(F)nc2)c(C2(c3ccc(-c4cnc(N)nc4)cc3)CCC2)[nH]1` [Example 179, methyl 5-{1-[4-(2-aminopyrimidin-5-yl)phenyl]cyclobutyl}-4-(6-fluoropyridin-3-yl)-1H-pyrrole-2-carboxylate] the same measures were 4400 nM and 200 nM.
As for `CN(C)C(=O)Cn1cc(-c2cnc(C(C)(c3ccc(-c4cnc(N)nc4)cc3)C3CC3)s2)cn1` (stereo not drawn) [Example 170, 2-[4-[2-[1-[4-(2-aminopyrimidin-5-yl)phenyl]-1-cyclopropyl-ethyl]thiazol-5-yl]pyrazol-1-yl]-N,N-dimethyl-acetamide], the half-maximal inhibitory concentration (IC50) in assay [1] worked out at 120 nM; in assay [2], 10 nM.
Taken in the same sequence, the figures for `COc1cncc(-c2ccc(C(C)(c3cn(Cc4ccccn4)c4ccccc34)C(C)C)cc2)c1` (stereo not drawn) [Example 27, 3-{2-[4-(5-methoxypyridin-3-yl)phenyl]-3-methylbutan-2-yl}-1-(pyridin-2-ylmethyl)-1H-indole] were 1800 nM and 20 nM.
Consider `CN(C)C(=O)c1cccc2c(C3(c4ccc(-c5cnc(N)nc5)cc4)CCC3)c[nH]c12` [Example 7, 3-{1-[4-(2-aminopyrimidin-5-yl)phenyl]cyclobutyl}-N,N-dimethyl-1H-indole-7-carboxamide], for which the IC50 in assay [1] amounted to 210 nM; in assay [2], 2.1 nM.
Take `Cc1ccc(-c2cc(C3(c4ccc(-c5cnc(N)nc5)cc4)CCC3)nn2C)cn1` [Example 20, 5-(4-{1-[1-methyl-5-(6-methylpyridin-3-yl)-1H-pyrazol-3-yl]cyclobutyl}phenyl)pyrimidin-2-amine]: the results for the 50% inhibitory concentration (IC50) in assay [1] and in assay [2] were 430 nM and 5.1 nM, respectively.
`Cc1ccc(-c2csc(C3(c4ccc(-c5cnc(N)nc5)cc4)CCC3)n2)cn1` [Example 157, 5-(4-{1-[4-(6-methylpyridin-3-yl)-1,3-thiazol-2-yl]cyclobutyl}phenyl)pyrimidin-2-amine]: the IC50 in assay [1] came out at 2600 nM; in assay [2], 16 nM.
Consider `CC(C)C(C)(c1ccc(-c2cnc(N)nc2)cc1)c1c[nH]c2ccccc12` (stereo not drawn) [Example 42, 5-{4-[2-(1H-indol-3-yl)-3-methylbutan-2-yl]phenyl}pyrimidin-2-amine], for which the IC50 in assay [1] worked out at 170 nM; in assay [2] it was 2.5 nM.
